From a melting point compilation (Tetko et al.; mined from patent text by program, amines drawn as free bases though some values may be those of a salt)

Row | SMILES | melting point [°C]
1 | COc1cc(F)ccc1Nc1ccc2c(c1)OCc1cc(N)ccc1C2=O | 38.9
2 | CC(=O)N[C@@H](C)COC1CCN(c2nc3cc(OCC4CC4)ccc3o2)CC1 | 99 to 100
3 | Cn1ccc(-c2ccc(C(=O)O)c(Cl)c2)n1 | 232 to 233
4 | CCCc1nc2c(N)nc(C)c(C)c2n1CCCCN(OC)C(=O)c1ccccc1 | 136 to 137
5 | Cc1[nH]c2ccc(CCO)cc2c1C(=O)OCc1ccccc1 | 170 to 172
6 | COc1cc(OC)cc(-c2ncoc2-c2ccc(OC)c(N)c2)c1 | 163 to 165
7 | CCOC(=O)c1cnc2c(cnn2CC)c1OCC | 112 to 115
8 | CCc1cnc(-c2ccc(N=C=S)cc2)nc1 | 114
9 | COc1cc(OC)nc(NC(=O)NS(=O)(=O)c2c(OC)ccc3snnc23)n1 | 120 to 129
10 | COc1ccc(-n2c3ccccc3c3cc(C(C#N)=C(C#N)c4cc(F)cc(F)c4)ccc32)cc1 | 140 to 142
11 | Nc1ccc(Oc2cc3ccccc3cc2Oc2ccc(N)c(O)c2)cc1O | 196 to 197
12 | Oc1ccc(-c2nc3cc(O)ccc3o2)c(O)c1 | > 300
13 | CSc1ncc(-c2ccccc2)c(=O)[nH]1 | 252 to 254
14 | O=C1CCC(N2C(=O)c3cccc(OCc4ccc(CN5CCSCC5)cc4)c3C2=O)C(=O)N1 (stereo not given) | 221 to 223
15 | O=C1CC(c2c(-c3ccc[nH]3)[nH]c3ccccc23)C(=O)N1 (stereo not given) | 67 to 69
16 | O=S(=O)(Nc1ccc2c(OCc3coc(-c4ccc(Cl)cc4)n3)cccc2c1)C(F)(F)F | 198 to 200
17 | CCc1ccc([N+](=O)[O-])cc1CNC(C)=O | 123 to 128
18 | O=C1c2c(O)ccc(O)c2C(=O)c2c(NCCN(CCO)CCO)ccc(NCCN(CCO)CCO)c21 | 134 to 136
19 | CC(C)Oc1c(CO)cnc2c(C(F)(F)F)cccc12 | 73 to 74
20 | NC(=O)NC(CS)Cc1ccccc1 (single isomer, unassigned; (+)) | 118
21 | COc1ccc2[nH]cc(CCN3CCC(Oc4ccc(F)cc4)CC3)c2c1 | 132 to 134
22 | Nc1ccccc1Nc1ccc(I)cc1 | 122 to 123
23 | COc1ccc(CN(C)CCOc2ccc(NC(=O)c3cccc4c(=O)c5cccc(OC)c5[nH]c34)c(C)c2)cc1OC | 178 to 179
24 | CCCc1nn(C)c2c(=S)[nH]c(-c3ccccc3OC)nc12 | 160 to 161

Row | SMILES | melting point [°C]
25 | CC(C)(C)NC(=O)c1ccc(S(=O)(=O)N2C(=O)C(C)(c3ccccc3Cl)c3cc(OCC(F)(F)F)ccc32)cc1 (stereo not given) | 134
26 | OC[C@H]1CCc2cccc(O)c2O1 | 131 to 132
27 | CC1(C)Oc2cc([N+](=O)[O-])ccc2[C@@H](N2Cc3ccccc3C2=O)[C@@H]1O (relative stereo) | 249 to 250
28 | CC(C)(C)SSc1nc2ccccc2s1 | 80 to 80.5
29 | CCCc1nn(C)c2c(=O)[nH]c(Cc3ccc(NC(C)=O)cc3)nc12 | 272 to 275
30 | O=C(O)COC1CCN(C(=O)CN2CCN(c3ccncc3)CC2)CC1 | 198 to 200
31 | CC(=O)N1CCn2nc(Nc3cc(-c4ccc5c(c4)NC(=O)C5)cn4ccnc34)cc2C1 | 161 to 165
32 | CSc1ccc(Nc2nc(=O)cc(N)n2-c2ccccc2)cc1 | 133 to 135
33 | O=CN1c2ccccc2N(Cc2ccccc2)CC1CN1CCCC1 (stereo not given) | 94 to 96
34 | CN1CCOc2cc(S(=O)(=O)n3c(COC(C)(C)C(=O)O)cc4nc(Cl)ccc43)ccc21 | 229
35 | CCCCCN1CCC(n2nc(-c3c(-c4ccccc4)nn4ccccc34)ccc2=O)CC1 | 106
36 | COc1ccc(S(=O)(=O)Nc2ccccc2/C=C/c2ccccn2)cc1 | 137 to 142
37 | CN(C)Cc1cc2ccc(C(=O)NNC(=O)CSCCOc3ccccc3)cc2o1 | 162 to 164
38 | Nc1ccc(C(=O)NC2CCN(c3ccccc3)C2)cc1 (stereo not given) | 213 to 216
39 | Cc1cc(-n2ccnc2)c2cccc(OCc3c(Cl)ccc(S(=O)(=O)N4CCC[C@H]4C(=O)N4CCN(c5ccccc5)CC4)c3Cl)c2n1 | 88
40 | Nc1cnc(N2CCN(CCCC(=O)c3ccc(F)cc3)CC2)cc1N | 166 to 169
41 | Cc1ccc(C(=CC=O)c2ccc(C)cc2)cc1 | 92 to 93.5
42 | CCOC(=O)C1=C(C)NNC(CC)=C1c1ccco1 | 82
43 | CC(C)(C)c1ccc(C(=O)Nc2cn3cc(-c4ccncc4)ccc3n2)cc1 | 293 to 294
44 | CC(C)(C)OC(=O)C(C1NC(C(=O)OCc2ccccc2)C2(CCCCC2)S1)N1C(=O)c2ccccc2C1=O (stereo not given) | 165 to 166
45 | COc1cc(OC)nc(C2OC(=O)c3c(Cl)cccc32)n1 (stereo not given) | 148 to 149
46 | CCOc1nc(NCc2ccco2)nc(Nc2ccccc2-c2cccnc2)n1 | 90 to 92
47 | Cn1cc(C2=C(c3cn(CO)c4ccccc34)C(=O)NC2=O)c2ccc([N+](=O)[O-])cc21 | 210 to 213
48 | CCOC1CN(CC=CC(=O)Nc2cc3c(Nc4cccc(Br)c4)ncnc3cc2OC)CC(OCC)O1 (stereo not given) | 133 to 138

Row | SMILES | melting point [°C]
49 | Cc1nc2c3cccc(Cl)c3ccn2c1CC(N)=O | 284 to 286
50 | CC1C(C)(C)C2=C(c3oncc3CC2)C1(C)C (stereo not given) | 81
51 | CN(C)Cc1c[nH]c2ccc(Cl)cc12 | 127 to 130
52 | CC(=O)Nc1cnc(-c2ccc(CC(C)N3CC(c4cccc(Cl)c4)OC3=O)cc2)o1 (stereo not given) | 78 to 88
53 | Cc1c(Cc2cccnc2)ccc2ccc(C(=O)O)cc12 | 210 to 211
54 | COc1ccc(C=CC(=O)c2c(O)cc(OC)cc2OC(C)C)cc1 | 113
55 | COc1ccc2[nH]c(S(=O)Cc3cc(N(C)C)c(Cl)cn3)nc2c1 (stereo not given) | 155 to 157
56 | CC(C)(COc1ccc(CNC(=O)C2Cc3ccccc3N2S(=O)(=O)c2ccc(-c3cccc(C(F)(F)F)c3)cc2)cc1)C(=O)O (stereo not given) | 95 to 105
57 | Cc1oncc1-c1cncc(OC2SCC(O)C(O)C2O)c1 (stereo not given) | 209
58 | CCc1nc2c(C)cc(C)nc2n1Cc1ccc(C(c2ccc(C)cc2)C(C(=O)O)C(=O)O)cc1 (stereo not given) | 140 to 141
59 | CCn1cc(C(=O)NCc2ccc(Cl)cc2)c(=O)c2ccsc21 | 183 to 184
60 | C1=CC(c2ccccc2)(c2ccccc2)CCS1 | 78
61 | NNC(=O)c1cccc(C(=O)N(NC(=O)c2ccccc2)C(=O)c2ccccc2)c1 | 297 to 299
62 | CN(C)C(=S)Oc1ccccc1C#N | 112
63 | COc1cc(/C=C/C(=O)O)cc(OC)c1OCc1ccccc1 | 102
64 | Cc1ccccc1Nc1cccc(-c2ccccc2)c1CN | 103 to 105
65 | O=c1oc(-c2cccc(S(=O)C(F)(F)F)c2)nc2ccccc12 (stereo not given) | 106 to 108
66 | O=C1C(CSC(=O)c2ccccc2)=C(CSC(=O)c2ccccc2)C(=O)C(CSC(=O)c2ccccc2)=C1CSC(=O)c1ccccc1 | 224 to 226
67 | C#CCCc1cc2cc(C(=O)OC)ccc2o1 | 57 to 58
68 | COC(=O)/C(=N\OC1(C(=O)O)CCC1)c1ccco1 | 133 to 134
69 | COC(=O)c1ccc2c(=O)[nH]c(=O)n(CCCCN3CCC(OC(c4ccccc4)c4ccccc4)CC3)c2c1 | 192 to 194
70 | O=CNCCSc1ccc2nccn2n1 | 148 to 151
